The molecule `CCc1nc(/C=C/c2cccc(O)c2)sc1C` came in with a melting point of 161 to 162 °C. The same measure for `CCCc1ncnc(O)c1Cc1ccc(-c2ccccc2C#N)cc1`: 158 °C; for `CSC(=Nc1ccccc1)N(c1ccccc1)c1nc(C)cc(C)n1`: 101 to 103 °C. For `C=CCOc1cc(-n2c(=O)cc(C(F)(F)F)n(C)c2=O)ccc1C#N` the value was 158 to 160 °C; for `COc1cc(-c2nc(-n3cccn3)c3c(C)c(C#N)sc3n2)cc(OC)c1OC`, 209 to 214 °C. For `O=C(O)c1cc(=O)cc(-c2ccccc2Cl)o1` the value was 241 to 246 °C; for `CCCCCCCCCCCCCCCCCCSC(C)(C)C(=O)CC(=O)OCC`, 34 to 37 °C; for `Cc1cn(C)c2c1N(C(=O)CCN1CCCC1)c1ccccc1NC2=O`, 185 °C. Regarding `Cc1ccccc1CO[C@H]1COCO[C@H]1C` (relative stereo), the melting point worked out at 54 °C. The same measure for `COc1ccc2[nH]cc(/C(C#N)=C/c3ccc(Cl)nc3)c2c1`: 184 °C; for `CCCCc1nc2ccccc2n1Cc1ccc(C(=O)O)cc1`: 229 to 231 °C. For `Cc1nc(=O)[nH]c2cc3c(cc12)OCO3` the value was 310 to 312 °C. `Cc1cn(NCCCc2ccncc2F)c2ccc(OCc3ccccc3)cc12`: the melting point lay in the range of 94 to 96 °C. For `O=S(=O)(CCCCl)NC1CC1` the value was 48 to 49.5 °C; for `Cc1cc(C(=O)O)ccc1-c1ccc2cc3c(cc2c1)C(C)(C)CCC3(C)C`, 248 to 250 °C; for `O=c1[nH]c(CCN2CCN(c3ccccc3)CC2)c(-c2ccc(F)cc2)[nH]1`, 232 to 234 °C. As for `Oc1ccc(-c2nn(C3CCCCC3)c3c(Cl)cccc23)cc1`, the melting point lay within 176 to 177 °C. For `COc1ccc(-c2nc3cc4nc[nH]c(=O)c4cc3[nH]2)cc1`, the melting point was over 300 °C. The same measure for `CSc1nc(-c2ccc(S(C)(=O)=O)cc2)n(-c2ccc(C(C)C)cc2)c(=O)c1C#N`: 211 to 212 °C; for `Clc1nc(-c2ncccn2)nc(Cl)c1-c1cccs1`: 159 to 160 °C; for `CC(=O)OC1CSC(Sc2ccc(C#N)cc2)C(OC(C)=O)C1OC(C)=O` (stereo unspecified): 155 °C. The same measure for `Cc1cc(C)nc(NC(=O)N(C)C)c1`: 105 to 108 °C. For `COC(=O)C(O)C(NC(=O)OCc1ccccc1)C(=O)OC` (stereo unspecified) the value was 129 °C. `CCCCCCCC(=O)CCC(C)=O` returned a melting point of 40 to 41 °C. For `CCCCc1ccc(CCCCC(COC(C)=O)(COC(C)=O)NC(C)=O)cc1` the value was 68 to 71 °C; for `COC(=O)Nc1ccc(CC(=O)Nc2cccc3c2C(=O)c2c-3n[nH]c2-c2ccc(OC)cc2)cc1`, 257 °C. For `C#CC(=NOC)C(=O)OC` the value was 82 to 83 °C; for `CC(C)[Si](Oc1cc(C=O)c2c(c1)C1(C)CCN(C)C1N2C)(C(C)C)C(C)C` (stereo unspecified), 42 to 45 °C. For `CCOC(=O)N1CCC(C(=O)c2ccc(F)cc2)(c2ccccc2)CC1` the value was 91.7 °C; for `O=C(O)CSCc1ccc([N+](=O)[O-])cc1`, 101 to 104 °C; for `CC(=O)CSc1cc(C(C)(C)C)c(O)c(C(C)(C)C)c1`, 105 to 106 °C. As to `CN(C)C(=O)c1c(-c2ccc(F)cc2)ccc2ccccc12`, the melting point is 103 to 104 °C. The same measure for `O=C(/C(=C\c1ccc(I)cc1)Sc1ccc(Br)cc1)c1ccc(Br)cc1`: 128 to 130 °C; for `O=C(CCCl)c1cc2[nH]c(=O)[nH]c2cc1Cl`: 201 to 204 °C. The same measure for `Cc1ccc(S(=O)(=O)N2[C@@H](CCO)CC[C@H]2c2ccc(F)cc2)cc1` (racemic): 129 °C; for `CC(C)c1cc(C(C)C)c2c(c1)C1(O)C(=O)c3ccccc3C1(O)O2` (stereo unspecified): 205 to 206 °C; for `CCCCOc1cc(/C=C(\OCC)C(=O)O)ccc1CCCc1ccc(OC)cc1`: 65 °C.

`CCOC(=O)c1cnc2nn(CC)cc2c1O` had a melting point of 197 to 198 °C. In turn, `OC(CCNCc1ccccc1)(c1ccccc1)c1ccccc1` returned a melting point of 145 to 146 °C. For the molecule `Cn1c2c(ccc1=O)C(C)(N)CCC2` (stereo unspecified), the melting point lay within 166 to 168 °C.

With `CC(=O)C(C#N)c1cccc(Cl)c1` (stereo unspecified), the melting point is 92 to 97 °C. For `CCCCCCc1ccc(-c2ccc(COC(c3ccccc3)(c3ccccc3)c3ccccc3)cc2[N+](=O)[O-])cc1` the value was 86 to 87 °C; for `O=C(Nc1ccc(Cl)nc1Cl)c1ccccc1O`, 179 to 186 °C; for `O=C(c1ccccc1)c1cc(Cl)ccc1-n1ccnc1`, 106 to 108 °C.

As for `O=S(=O)(Nc1ccccc1)c1cccc(Br)c1`, the melting point was in the range of 98 to 100 °C. As for `CC(C)[C@H](CC1C(=O)OC(C)(C)OC1=O)NC(=O)OC(C)(C)C`, the melting point was 108 to 112 °C. The same measure for `Cc1c(Cl)ccc([N+](=O)[O-])c1N`: 164 to 165 °C.

Turning to `CNc1ccccc1CNC(=O)C1Cc2ccccc2N1S(=O)(=O)c1ccc(-c2cccc(C(F)(F)F)c2)cc1` (stereo unspecified), the melting point stood at 86 °C. For `CCOC(=O)C1=C(C)NC(COC(=O)CCN(C)Cc2ccccc2)=C(C(=O)OCC)C1c1ccccc1Cl` (stereo unspecified) the value was 86 to 87 °C. For `COc1ccc(-c2cc(=S)n(CC=Cc3ccc(F)cc3F)nc2-c2ccc(OC)cc2)cc1` the value was 141 °C; for `O=C(CCc1cccc2[nH]ccc12)c1ccccc1O`, 143 °C; for `N#Cc1cccc(-c2c(C(N)=O)c3n(c2Cl)CCNC3)c1`, 151 to 153 °C. For `CSC1=Nc2ccccc2N(C)c2cscc21` the value was 113 to 115 °C. `Cc1nn(CC(=O)O)cc1C(=O)Nc1ccc(OCC(C)(C)C)c(C#N)c1`: the melting point lay within 234 to 245 °C.

`Cn1ccc2cc(NC(=O)Nc3cncnc3)ccc21` yielded a melting point of 210 to 213 °C. For `COc1ccc(-c2[nH]nc3c2C(=O)c2c(NC(=O)CN4CCC(N)CC4)cccc2-3)cc1` the value was over 300 °C; for `CCC1=Cc2cc3c(cc2C(c2ccc(N)cc2)=NN1C(C)=O)OCO3`, 136 to 138 °C; for `CCCNc1nc(NCc2ccc(NC(=O)c3ccc(F)cc3)cc2)c2ccc(C)cc2n1`, 170 to 174 °C. `COC(=O)c1[nH]c2c(C)ccc(C)c2c1S(C)(=O)=O` yielded a melting point of 163 to 164 °C. In turn, `CCC(O)C#Cc1ncn2c1CN(C)C(=O)c1c(Cl)cccc1-2` (stereo unspecified) registered a melting point of 178 °C. For `NS(=O)(=O)Nc1cccc(-c2cccc(-c3nc(-c4ccc(C(F)(F)F)cc4)cc(C(F)(F)F)n3)c2)c1` the value was 174 °C; for `CC(=O)CN1CCc2c(c(=O)oc3cc(C(C)C)ccc23)C1`, 76 to 79 °C. Consider `Cn1nc(-c2ccc([N+](=O)[O-])cc2)c2ccccc2c1=O`, for which the melting point was 200 to 202 °C. In the case of `CNC(=O)c1ccc(C)c(-n2c(C)cc(OCc3ccccc3CNC(=O)Nc3cc(C(C)(C)C)nn3-c3ccc(O)c(Cl)c3)c(Cl)c2=O)c1`, the melting point lay within 201 to 203 °C. The molecule `Cc1ccc(OC(Cc2ccc(OCCNC(=O)c3ccc(-c4ccccn4)cc3)cc2)C(=O)O)cc1` (stereo unspecified) registered a melting point of 129 to 131 °C. For `CCCCN1C(=O)CCC(C)(C)c2cc(C(=O)Nc3ccc(C(=O)O)cc3)ccc21` the value was 269 °C.

In turn, `O=c1ccnc(NCCCN(Cc2ccccc2Cl)c2ccccn2)[nH]1` returned a melting point of 153 to 154 °C. The same measure for `O=c1cc(OCc2ccccc2)cc(C=Cc2ccc3c(c2)OCO3)o1`: 150 to 152 °C; for `CS(=O)(=O)N(Cc1ccco1)CC(O)(Cn1cncn1)c1ccc(Cl)cc1Cl` (stereo unspecified): 114 to 115 °C; for `CC(Cl)(Cl)C1(Cl)N=C(Cl)C(Cl)=N1`: 58 to 60 °C. For `COC1CCC2(C)C(=CCC3C2CCC2(C)C(C(C)=O)CCC32)C1` (stereo unspecified) the value was 123 to 124 °C. The same measure for `Clc1nnc(C(Cl)(Cl)Cl)s1`: 41 °C; for `COc1ccc2cc(-c3ccc(-n4nc(C)nc4C)c(Cl)c3)c(=O)oc2c1`: 219 °C.

The molecule `CCOC(=O)c1cc2ccc3oc4ccccc4c3c2n1C` returned a melting point of 114 to 116 °C. As to `COc1ccc2c(c1)Sc1ccc(SC)cc1C(O)C2` (stereo unspecified), the melting point lay in the range of 122 to 124 °C. For `Cc1cc(F)ccc1-c1nc(NC2CCOCC2)nc2c1ccc(=O)n2-c1c(F)cccc1F` the value was 231 to 232 °C. In turn, `Cc1cc2c(cc1C)C(=O)CCC2` returned a melting point of 47 to 48 °C. The molecule `NC(=O)c1nnn(Cc2ccc(Cl)c(Cl)c2)c1N` came in with a melting point of 221 to 222 °C.

In turn, `COc1ccccc1NC(=O)Nc1nc(Oc2ccc3ccccc3c2)nc(N(C)CCC(=O)O)n1` gave a melting point of 178 to 180 °C. Take `O=C1Nc2cc(Cl)ccc2N[C@H]1Cc1ccccc1`: the melting point is 185 °C. Consider `Cc1ccc(-c2nc(C(=O)Nc3nnn[nH]3)c(C)s2)s1`, for which the melting point was 278 to 280 °C. For `CC(C)c1nn(-c2ccc(C(F)(F)F)cn2)cc1CCCOc1c(C#N)cccc1CC(=O)O` the value was 144 to 145 °C; for `Cc1cc(-c2nnn(C)n2)cc(C)c1OCCCC(O)c1cc2cccnc2[nH]1` (stereo unspecified), 166 to 169 °C; for `COc1ccc(N2C(=O)C(O[Si](C(C)C)(C(C)C)C(C)C)C2c2ccco2)cc1` (stereo unspecified), 109 to 110 °C. In the case of `CCOC(=O)c1cn(CCCl)c2nc(N3CCN(C(=O)OCC)CC3)c(F)cc2c1=O`, the melting point lay within 143 to 144 °C. `COc1ccc(C2(C#N)CCC(=NO)CC2)cc1OCC1CC1` (stereo unspecified) came in with a melting point of 75 to 77 °C.

Molecule `CSC1=C([N+](=O)[O-])CCN1` had a melting point of 207 to 209 °C. For `O=C(CC(NC(=O)c1ccccc1)c1ccccc1)Nc1n[nH]c(=S)s1` (stereo unspecified) the value was 266 to 267 °C; for `CCOc1cc(N)c(Cl)cc1C(=O)NCC1CN(Cc2ccc(F)cc2)CCO1` (stereo unspecified), 151 to 153 °C. The same measure for `O=C1OC(Cc2ccc([N+](=O)[O-])cc2)C(=O)N1Cc1ccccc1` (stereo unspecified): 92 to 93 °C; for `CC(=O)CSc1c([N+](=O)[O-])ccc(F)c1Cl`: 91 to 92 °C.

What is called melting point is the temperature of the solid-liquid transition.

The record behind these values is a melting point compilation (Tetko et al.; mined from patent text by program, amines drawn as free bases though some values may be those of a salt).
